Measured values published in article PMC9865890, “N-Derivatives of (Z)-Methyl 3-(4-Oxo-2-thioxothiazolidin-5-ylidene)methyl)-1H-indole-2-carboxylates as Antimicrobial Agents—In Silico and In Vitro Evaluation” (Pharmaceuticals, 2023).
Converted amounts (≈) assume the structure as drawn. Like-named read-outs stand apart in the source and are kept apart here.

How the values were obtained:
[1] = test system: Bacillus cereus (clinical isolate); assay: Antibacterial microdilution (MIC/MBC); type: cell-based; settings: B.c. (B. cereus)
Procedure: (§1) The synthesized compounds (Table 1) were evaluated for their antibacterial activity against a panel of eight species using a microdilution method with ampicillin and streptomycin as reference drugs. […] The order of activity can be presented as: 8 > 11 > 2 > 1 > 12 > 3 > 17 > 7 > 5 > 13 > 14 > 16 > 9 > 4 = 6 > 15 > 10. […] Cloacae. […] The most sensitive bacteria appeared to be En. cloacae, while E. coli was the most resistant one, followed by M. flavus.
(§2) The following Gram-negative bacteria: Escherichia coli (ATCC 35210), Enterobacter cloacae (clinical isolate), Salmonella typhimurium (ATCC 13311), as well as Gram-positive bacteria: Listeria monocytogenes (NCTC 7973), Bacillus cereus (clinical isolate), and Staphylococcus aureus (ATCC 6538) were used. The organisms were obtained from the Mycological Laboratory, Department of Plant Physiology, Institute for Biological Research “Siniša Stankovic”, Belgrade, Serbia. The minimum inhibitory (MIC) and minimum bactericidal (MBC) concentrations were determined by the modified microdilution method, as previously reported.

[2] = test system: Enterobacter cloacae (clinical isolate); assay: Antibacterial microdilution (MIC/MBC); type: cell-based; settings: Enterobacter cloacae, En.cl (En. cloacae); for MIC: read-out: MIC
Procedure: as §1, §2

[3] = test system: Escherichia coli (ATCC 35210); assay: Antibacterial microdilution (MIC/MBC); type: cell-based; settings: Escherichia coli, ATCC35210, E. coli; for MIC: read-out: MIC
Procedure: as §1, §2

[4] = test system: Listeria monocytogenes (NCTC 7973); assay: Antibacterial microdilution (MIC/MBC); type: cell-based; settings: Listeria monocytogenes, NCTC7973, L.m. (L. monocytogenes); for MIC: read-out: MIC
Procedure: as §1, §2

M. flavus = assay: Antibacterial microdilution (MIC/MBC); type: cell-based; settings: Micrococcus flavus; M.f. (M. flavus)
Procedure: as §1, §2

P. aeruginosa = assay: Antibacterial microdilution (MIC/MBC); type: cell-based; settings: Pseudomonas aeruginosa, P.a. (P. aeruginosa); for MIC: read-out: MIC
Procedure: as §1, §2

[5] = test system: Salmonella typhimurium (ATCC 13311); assay: Antibacterial microdilution (MIC/MBC); type: cell-based; settings: S.t. (S. typhimurium)
Procedure: as §1, §2

[6] = test system: Staphylococcus aureus (ATCC 6538); assay: Antibacterial microdilution (MIC/MBC); type: cell-based; settings: S.a. (S. aureus)
Procedure: as §1, §2

A. ochraceus = assay: Antifungal bioassay (MIC/MFC); type: cell-based; settings: Aspergillus ochraceus, A.o. (A. ochraceus); for MIC: read-out: MIC
Procedure: (§3) For the antifungal bioassays, six fungi were used: […] The organisms were obtained from the Mycological Laboratory, Department of Plant Physiology, Institute for Biological Research “Siniša Stankovic”, Belgrade, Serbia. All experiments were performed in duplicate.

[7] = test system: Aspergillus fumigatus (ATCC 1022); assay: Antifungal bioassay (MIC/MFC); type: cell-based; settings: ATCC1022, A.f. (A. fumigatus)
Procedure: as §3

[8] = test system: Aspergillus versicolor (ATCC 11730); assay: Antifungal bioassay (MIC/MFC); type: cell-based; settings: ATCC11730, A.v. (A. versicolor)
Procedure: as §3

P. ochrochloron = assay: Antifungal bioassay (MIC/MFC); type: cell-based; settings: for MIC: P.o. (P. ochrochloron; text: P. ochramensis); for MFC: P.o. (P. ochrochloron)
Procedure: as §3

[9] = test system: Penicillium funiculosum (ATCC 36839); assay: Antifungal bioassay (MIC/MFC); type: cell-based; settings: Talaromyces funiculosus, ATCC36839; P.f. (P. funiculosum)
Procedure: as §3

[10] = test system: Trichoderma viride (IAM 5061); assay: Antifungal bioassay (MIC/MFC); type: cell-based; settings: T.v. (T. viride)
Procedure: as §3

[11] = test system: Penicillium verrucosum var. cyclopium (food isolate); assay: Antifungal bioassay (MIC/MFC); type: cell-based
Procedure: For the antifungal bioassays, six fungi were used: Aspergillus niger (ATCC 6275), Aspergillus fumigatus (ATCC 1022), Aspergillus versicolor (ATCC 11730), Penicillium funiculosum (ATCC 36839), Trichoderma viride (IAM 5061), and Penicillium verrucosum var. cyclopium (food isolate). The organisms were obtained from the Mycological Laboratory, Department of Plant Physiology, Institute for Biological Research “Siniša Stankovic”, Belgrade, Serbia. All experiments were performed in duplicate.

[12] = test system: Aspergillus niger (ATCC 6275); assay: Antifungal bioassay (MIC/MFC); type: cell-based; settings: ATCC6275, A.n. (A. niger)
Procedure: as §3

[13] = Salmonella enterica, read-out: MIC
[14] = Staphylococcus aureus, ATCC6538
[15] = Staphylococcus aureus, ATCC6538, read-out: MIC
[16] = Penicillium ochrochloron, read-out: MIC
[17] = Trichoderma viride, IAM5061, read-out: MIC

Row | SMILES | MBC ([1]; Bacillus cereus) | MIC ([1]; Bacillus cereus, read-out: MIC) | MBC [2] | MIC [2] | MBC [3] | MIC [3] | MBC [4] | MIC [4] | MBC (M. flavus) | MIC (M. flavus) | MBC (P. aeruginosa) | MIC (P. aeruginosa) | MBC ([5]; Salmonella enterica) | MIC [5, 13] | MBC [6, 14] | MIC [6, 15] | MFC (A. ochraceus) | MIC (A. ochraceus) | MFC [7] | MIC [7] | other results
1 | COC(=O)c1[nH]c2ccccc2c1/C=C1\SC(=S)N(N2CCOCC2)C1=O [Compound 6, (Z)-methyl 3-((3-morpholino-4-oxo-2-thioxothiazolidin-5-ylidene)methyl)-1H-indole-2-carboxylate] | 60 ± 6 mg/L (≈ 149 µM) | 30 ± 10 mg/L (≈ 74.4 µM) | 30 ± 10 mg/L (≈ 74.4 µM) | 15 ± 9 mg/L (≈ 37.2 µM) | 120 ± 10 mg/L (≈ 297 µM) | 60 ± 6 mg/L (≈ 149 µM) | 60 ± 6 mg/L (≈ 149 µM) | 30 ± 10 mg/L (≈ 74.4 µM) | 60 ± 6 mg/L (≈ 149 µM) | 45 ± 3 mg/L (≈ 112 µM) | 60 ± 6 mg/L (≈ 149 µM) | 30 ± 10 mg/L (≈ 74.4 µM) | 60 ± 6 mg/L (≈ 149 µM) | 30 ± 10 mg/L (≈ 74.4 µM) | 30 ± 10 mg/L (≈ 74.4 µM) | 15 mg/L (≈ 37.2 µM) | 15 ± 3 mg/L (≈ 37.2 µM) | 8 ± 0.6 mg/L (≈ 19.8 µM) | 120 ± 40 mg/L (≈ 297 µM) | 60 ± 6 mg/L (≈ 149 µM) | MIC [6]: 15 ± 9 mg/L (≈ 37.2 µM); MFC [8]: 15 ± 3 mg/L (≈ 37.2 µM); MIC [8]: 8 ± 0.6 mg/L (≈ 19.8 µM); MIC (P. ochrochloron): 8 ± 0.6 mg/L (≈ 19.8 µM); MFC (P. ochrochloron; Penicillium ochrochloron): 15 ± 3 mg/L (≈ 37.2 µM); MIC (P. ochrochloron; [16]): 8 mg/L (≈ 19.8 µM); MFC [9]: 30 ± 10 mg/L (≈ 74.4 µM); MIC [9]: 15 ± 3 mg/L (≈ 37.2 µM); MIC [10]: 8 ± 0.6 mg/L (≈ 19.8 µM); MFC ([10]; Trichoderma viride, IAM5061): 15 ± 3 mg/L (≈ 37.2 µM); MIC [10, 17]: 8 mg/L (≈ 19.8 µM); MFC [11]: 30 ± 10 mg/L (≈ 74.4 µM); MIC [11]: 15 ± 3 mg/L (≈ 37.2 µM); melting point: 278 to 280 °C
2 | COC(=O)c1[nH]c2cc(OC)ccc2c1/C=C1\SC(=S)N(c2cccc(F)c2)C1=O [Compound 13, (Z)-methyl 3-((3-(3-fluorophenyl)-4-oxo-2-thioxothiazolidin-5-ylidene)methyl)-6-methoxy-1H-indole-2-carboxylate] | 60 ± 6 mg/L (≈ 136 µM) | 30 ± 10 mg/L (≈ 67.8 µM) | 30 ± 10 mg/L (≈ 67.8 µM) | 15 ± 9 mg/L (≈ 33.9 µM) | 60 ± 6 mg/L (≈ 136 µM) | 45 ± 3 mg/L (≈ 102 µM) | 60 ± 6 mg/L (≈ 136 µM) | 30 ± 10 mg/L (≈ 67.8 µM) | 60 ± 6 mg/L (≈ 136 µM) | 45 ± 3 mg/L (≈ 102 µM) | 60 ± 6 mg/L (≈ 136 µM) | 30 ± 10 mg/L (≈ 67.8 µM) | 60 ± 6 mg/L (≈ 136 µM) | 30 ± 10 mg/L (≈ 67.8 µM) | 30 ± 10 mg/L (≈ 67.8 µM) | 15 ± 9 mg/L (≈ 33.9 µM) | 15 ± 3 mg/L (≈ 33.9 µM) | 8 ± 0.6 mg/L (≈ 18.1 µM) | 120 ± 40 mg/L (≈ 271 µM) | 60 ± 6 mg/L (≈ 136 µM) | MFC [12]: 30 ± 10 mg/L (≈ 67.8 µM); MIC [12]: 15 ± 3 mg/L (≈ 33.9 µM); MFC [8]: 30 ± 10 mg/L (≈ 67.8 µM); MIC [8]: 15 ± 3 mg/L (≈ 33.9 µM); MFC (P. ochrochloron; Penicillium ochrochloron): 30 ± 10 mg/L (≈ 67.8 µM); MIC (P. ochrochloron; [16]): 15 ± 3 mg/L (≈ 33.9 µM); MFC [9]: 30 ± 10 mg/L (≈ 67.8 µM); MIC [9]: 15 ± 3 mg/L (≈ 33.9 µM); MFC [11]: 30 ± 10 mg/L (≈ 67.8 µM); MIC [11]: 15 ± 3 mg/L (≈ 33.9 µM); melting point: 238 to 240 °C
3 | COC(=O)c1[nH]c2ccccc2c1/C=C1\SC(=S)N(c2cccc(O)c2)C1=O [Compound 3, (Z)-methyl 3-((3-(3-hydroxyphenyl)-4-oxo-2-thioxothiazolidin-5-ylidene)methyl)-1H-indole-2-carboxylate] | 30 ± 10 mg/L (≈ 73.1 µM) | 15 mg/L (≈ 36.5 µM) | 30 ± 10 mg/L (≈ 73.1 µM) | 15 ± 9 mg/L (≈ 36.5 µM) | 30 ± 10 mg/L (≈ 73.1 µM) | 22 ± 5 mg/L (≈ 53.6 µM) | 60 ± 6 mg/L (≈ 146 µM) | 30 ± 10 mg/L (≈ 73.1 µM) | 60 ± 6 mg/L (≈ 146 µM) | 45 ± 3 mg/L (≈ 110 µM) | 60 ± 6 mg/L (≈ 146 µM) | 30 ± 10 mg/L (≈ 73.1 µM) | 30 ± 10 mg/L (≈ 73.1 µM) | 15 mg/L (≈ 36.5 µM) | 30 ± 10 mg/L (≈ 73.1 µM) | 15 mg/L (≈ 36.5 µM) | 15 ± 3 mg/L (≈ 36.5 µM) | 8 ± 0.6 mg/L (≈ 19.5 µM) | 60 ± 6 mg/L (≈ 146 µM) | 30 ± 10 mg/L (≈ 73.1 µM) | MIC [1]: 15 ± 9 mg/L (≈ 36.5 µM); MIC [5]: 15 ± 9 mg/L (≈ 36.5 µM); MIC [6]: 15 ± 9 mg/L (≈ 36.5 µM); MFC [8]: 15 ± 3 mg/L (≈ 36.5 µM); MIC [8]: 8 ± 0.6 mg/L (≈ 19.5 µM); MFC (P. ochrochloron; Penicillium ochrochloron): 15 ± 3 mg/L (≈ 36.5 µM); MIC (P. ochrochloron; [16]): 8 ± 0.6 mg/L (≈ 19.5 µM); MFC [9]: 15 ± 3 mg/L (≈ 36.5 µM); MIC [9]: 8 ± 0.6 mg/L (≈ 19.5 µM); MIC [10]: 4 ± 1 mg/L (≈ 9.74 µM); MFC ([10]; Trichoderma viride, IAM5061): 8 ± 0.6 mg/L (≈ 19.5 µM); MIC [10, 17]: 4 mg/L (≈ 9.74 µM); MFC [11]: 30 ± 10 mg/L (≈ 73.1 µM); MIC [11]: 15 ± 3 mg/L (≈ 36.5 µM); melting point: 245 to 247 °C
4 | COC(=O)c1[nH]c2ccc(F)cc2c1/C=C1\SC(=S)N(CCC(=O)O)C1=O [Compound 14, (Z)-3-(5-((5-fluoro-2-(methoxycarbonyl)-1H-indol-3-yl)methylene)-4-oxo-2-thioxothiazolidin-3-yl)propanoic acid] | 60 ± 6 mg/L (≈ 147 µM) | 30 ± 10 mg/L (≈ 73.5 µM) | 30 ± 10 mg/L (≈ 73.5 µM) | 15 ± 9 mg/L (≈ 36.7 µM) | 60 ± 6 mg/L (≈ 147 µM) | 45 ± 3 mg/L (≈ 110 µM) | 60 ± 6 mg/L (≈ 147 µM) | 45 ± 3 mg/L (≈ 110 µM) | 60 ± 6 mg/L (≈ 147 µM) | 45 ± 3 mg/L (≈ 110 µM) | 30 ± 10 mg/L (≈ 73.5 µM) | 15 ± 9 mg/L (≈ 36.7 µM) | 60 ± 6 mg/L (≈ 147 µM) | 45 ± 3 mg/L (≈ 110 µM) | 60 ± 6 mg/L (≈ 147 µM) | 30 ± 10 mg/L (≈ 73.5 µM) | 30 ± 10 mg/L (≈ 73.5 µM) | 15 ± 3 mg/L (≈ 36.7 µM) | 120 ± 40 mg/L (≈ 294 µM) | 60 ± 6 mg/L (≈ 147 µM) | MFC [12]: 30 ± 10 mg/L (≈ 73.5 µM); MIC [12]: 15 ± 3 mg/L (≈ 36.7 µM); MFC [8]: 30 ± 10 mg/L (≈ 73.5 µM); MIC [8]: 15 ± 3 mg/L (≈ 36.7 µM); MFC (P. ochrochloron; Penicillium ochrochloron): 30 ± 10 mg/L (≈ 73.5 µM); MIC (P. ochrochloron; [16]): 15 ± 3 mg/L (≈ 36.7 µM); MFC [9]: 30 ± 10 mg/L (≈ 73.5 µM); MIC [9]: 15 ± 3 mg/L (≈ 36.7 µM); MFC [11]: 30 ± 10 mg/L (≈ 73.5 µM); MIC [11]: 15 ± 3 mg/L (≈ 36.7 µM); melting point: 275 to 276 °C
